Test results from patent publication US6753295B1, “Plant activator, process for producing the same, activation method, activity promoter and method for applying the promoter” (Hokkaido Green Kosan, Incorporated, priority 1999, dated 2004).

How the values were obtained:
Assay type in all cases: cell-based
[1] = tested on: E. coli NIHJ JC-2; assay: MIC, agar plate dilution method; conditions: E.coliNIHJ JC-2
Procedure: (§1) 22 strains in total, that is, 1 strain of S. aureus 209P JC-1, 20 strains of 1G-stored, clinically separated Staphylococcus (10 strains each of MSSA and MRSA), and 1 strain of E. coli NIHJ JC-2 as the standard strain.
(§2) MW:168, methicilin (DMPPC, staphcililn for injection, Lot. No. FSB […], Banyu Pharmaceutical Co., Ltd.), vancomycin (VCM, Lot. No. 41H0457, 10750, SIGMA).
(§3) Mueller-Hinton agar (MIA, Difco) was used for measurement of antimicrobial properties, and Mueller Hinton broth (MHB, Difco) was used for pre-cultivation.
(§4) The minimum inhibitory concentration (MIC) of each chemical against the used strain was determined according to an agar plate dilution method in accordance with the standard methods of Japanese Society of Chemotherapy. The strain was sprayed onto MHA and cultured at 37° C. overnight, and the resultant colonies were cultured in MHB at 37° C. overnight, and its microbial liquid was diluted 100-fold (1000-fold dilution for E. coli) and used as inoculation liquid.

[2] = tested on: S. aureus 209P JC-1; assay: MIC, agar plate dilution method; conditions: S.aureu209P JC-1
Procedure: as §1, §2, §3, §4

[3] = tested on: clinically separated Staphylococcus (MSSA and MRSA); assay: MIC, agar plate dilution method
Procedure: as §1, §2, §3, §4

[4] = tested on: Staphylococcus aureus 209P; assay: paper disk bioassay of the purified product against bacteria; conditions: 1000, 500 and 250 ppm; 37° C., 18 hours
Procedure: (§5) An agar medium containing a test bacterium was placed in a Petri dish and fixed therein. A paper disk containing the sample was placed thereon and incubated at 37° C. for 18 hours, and formation of a circle of inhibited growth was confirmed.
(§6) The following 4 strains were used: Staphylococcus aureus 209P, Pseudomonas syringal, Xanthomonoas Campestris pv. citri, and Erwinia sp.
(§7) For pre-culture, a bouillon medium (DIFCO) was used, and after overnight cultivation, the cultivation medium was diluted at ×10^2 and mixed with 0.5% upper-layer medium. As the medium for measuring the bacterium, Mycin agar (Mikumi Kagaku) was used.
(§8) Upper layer−1.5% Mycin agar (Mikuni Kagaku)+0.5% Mycin agar mixed with the overnight cultivation (diluted at ×10^2) in 2% bouillon medium (DIFCO)
(§9) Lower layer−2.0% Mycin agar (Mikuni Kagaku)
(§10) A paper disk was impregnated with the isolated and purified product prepared at 1000 ppm, 500 ppm and 250 ppm respectively was air-dried, placed on the Petri dish and incubated at 37° C. for 18 hours, and whether a circle of inhibited growth was formed or not was observed.

[5] = tested on: Erwinia sp.; assay: as above; conditions: 1000, 500 and 250 ppm; 37° C., 18 hours
Procedure: as §5, §6, §7, §8, §9, §10

[6] = tested on: Pseudomonas syringal; assay: as above; conditions: 1000, 500 and 250 ppm; 37° C., 18 hours
Procedure: as §5, §6, §7, §8, §9, §10

[7] = tested on: Xanthomonoas Campestris pv. citri; assay: as above; conditions: 1000, 500 and 250 ppm; 37° C., 18 hours
Procedure: as §5, §6, §7, §8, §9, §10

COc1cccc(OC)c1C(=O)N[C@@H]1C(=O)N2[C@@H]1SC(C)(C)[C@@H]2C(=O)O [DMPP, methicilin]
6.25 micro gram/ml: MIC ([3]; MRSA TH1351)
1.56 micro gram/ml: MIC [2] | MIC ([3]; MRSA TH948) | MIC ([3]; MRSA TH952) | MIC ([3]; MRSA TH955) | MIC ([3]; MRSA TH957)
3.13 micro gram/ml: MIC [1] | MIC ([3]; MRSA TH949) | MIC ([3]; MRSA TH950) | MIC ([3]; MRSA TH951) | MIC ([3]; MRSA TH953) | MIC ([3]; MRSA TH954) | MIC ([3]; MRSA TH956)
12.5 micro gram/ml: MIC ([3]; MRSA TH1350)
>12.5 micro gram/ml: MIC ([3]; MRSA TH972) | MIC ([3]; MRSA TH973) | MIC ([3]; MRSA TH974) | MIC ([3]; MRSA TH975) | MIC ([3]; MRSA TH976) | MIC ([3]; MRSA TH1352) | MIC ([3]; MRSA TH1353) | MIC ([3]; MRSA TH1354)

CN[C@H](CC(C)C)C(=O)N[C@H]1C(=O)N[C@@H](CC(N)=O)C(=O)N[C@H]2C(=O)N[C@H]3C(=O)N[C@H](C(=O)N[C@H](C(=O)O)c4cc(O)cc(O)c4-c4cc3ccc4O)[C@H](O)c3ccc(c(Cl)c3)Oc3cc2cc(c3O[C@@H]2O[C@H](CO)[C@@H](O)[C@H](O)[C@H]2O[C@H]2C[C@](C)(N)[C@H](O)[C@H](C)O2)Oc2ccc(cc2Cl)[C@H]1O [VCM, vancomycin]
0.78 micro gram/ml: MIC [2] | MIC ([3]; MRSA TH948) | MIC ([3]; MRSA TH949) | MIC ([3]; MRSA TH950) | MIC ([3]; MRSA TH951) | MIC ([3]; MRSA TH952) | MIC ([3]; MRSA TH953) | MIC ([3]; MRSA TH954) | MIC ([3]; MRSA TH955) | MIC ([3]; MRSA TH956) | MIC ([3]; MRSA TH957) | MIC ([3]; MRSA TH972) | MIC ([3]; MRSA TH973) | MIC ([3]; MRSA TH974) | MIC ([3]; MRSA TH975) | MIC ([3]; MRSA TH976) | MIC ([3]; MRSA TH1350) | MIC ([3]; MRSA TH1351) | MIC ([3]; MRSA TH1352) | MIC ([3]; MRSA TH1353) | MIC ([3]; MRSA TH1354)
>6.25 micro gram/ml: MIC [1]

O=C(O)/C=C/C1=CC(=O)CC1O (centres unmarked) [MW168, 3(3-hydroxy-cyclopropene 5-one-2-yl)2-propenoic acid]
>50 micro gram/ml: MIC [1] | MIC [2] | MIC ([3]; MRSA TH948) | MIC ([3]; MRSA TH949) | MIC ([3]; MRSA TH950) | MIC ([3]; MRSA TH951) | MIC ([3]; MRSA TH952) | MIC ([3]; MRSA TH953) | MIC ([3]; MRSA TH954) | MIC ([3]; MRSA TH955) | MIC ([3]; MRSA TH956) | MIC ([3]; MRSA TH957) | MIC ([3]; MRSA TH972) | MIC ([3]; MRSA TH973) | MIC ([3]; MRSA TH974) | MIC ([3]; MRSA TH975) | MIC ([3]; MRSA TH976) | MIC ([3]; MRSA TH1350) | MIC ([3]; MRSA TH1351) | MIC ([3]; MRSA TH1352) | MIC ([3]; MRSA TH1353) | MIC ([3]; MRSA TH1354)
no or less activity: antimicrobial properties against Staphylococcus ([3]; concentrations used 50˜0.10 micro gram/ml) | circle of inhibited growth / activity against the bacteria [4] | circle of inhibited growth / activity against the bacteria [5] | circle of inhibited growth / activity against the bacteria [6] | circle of inhibited growth / activity against the bacteria [7]
